Experimental data: US20220211658A1, “METHODS FOR TREATING DISORDERS ASSOCIATED WITH SLEEP SPINDLE DEFICITS” (The Broad Institute, Inc., priority 2019, published 2022)

Assays:
TRN neurons in RH mice = assay: Rebound burst firing in TRN neurons, slices from CACNA1I R1305H (RH) mice; type: cell-based; details: LY379268 1 μM bath application, mean±s.e.m., n=9, baseline 1.44±0.444, p=0.0039
Excerpt: (§1) TRN neurons are known to display dual firing modes depending on their resting membrane potential: tonic and burst firing. While tonic firing refers to regular sodium spike trains at depolarized membrane potential, burst firing is characterized by repetitive “low-threshold” T type Ca^2+ transients (mediated by Cav3.3 channel) crowned by high-frequency sodium spikes when hyperpolarized. This burst firing mode may be critical for the generation and/or the maintenance of certain sleep rhythms in mice, including generation and maintenance of sleep spindle oscillations (Astori et al., 2011; Lee et al., 2014; Steriade et al., 1993; von Krosigk et al., 1993; Sherman et al., 2002).
Mice carrying a mutation in CACNA1I (R1305H; RH mice) show a significant deficit in rebound bursting of TRN neurons. The amino acid sequence of mouse CACNA1I protein is provided in SEQ ID NO: 2. Whether the group II metabotropic glutamate receptor agonist LY379268 could rescue such deficits in rebound bursting in RH mice was tested. Similar to in WT mice, LY379268 (1 μM) was also able to increase rebound bursting in RH mice (FIG. 2A-2B). The rebound bursting in baseline/control conditions was 1.44±0.444 (mean±s.e.m.), while after the bath application of LY379268 (1 μM) it was 3.78±1.08 (n=9 Wilcoxon signed rank test: p=0.0039**). […]

TRN neurons in WT mice = assay: Rebound burst firing in TRN neurons, acute brain slices from WT mice; type: cell-based; details: mean±s.e.m.
Excerpt: as §1
Whether this characteristic TRN burst firing activity is affected by activation of the group II metabotropic glutamate receptors, including mGlu2 and mGlu3, was examined using the group II metabotropic glutamate receptor agonist, LY379268. As shown in FIG. 1A-1B, a significant increase in the repetitive rebound bursting after the addition of LY379268 compared to baseline levels in acute brain slices acquired from wild-type (WT) mice was observed. The rebound bursting in the baseline condition (control) was 1.87±0.291 (mean±s.e.m.), while after the bath application of LY379268 (1 μM) it was 2.87±0.435 (n=15 Wilcoxon signed rank test: p=0.002**). Such increase was not observed in WT slices treated with artificial cerebrospinal fluid (ACSF; n=14; baseline: 1.79±0.291; ACSF treated: 2.21±0.299; Wilcoxon signed rank test: p=0.1562). In addition, there was also a reduction in burst threshold (defined as the lowest membrane holding potential from which hyperpolarization induced rebound bursting can be observed) in WT mice after bath application of LY379268 (1 μM; FIG. 1C). The threshold for rebound bursting in the baseline condition (control) was −76.98 mV±1.79 (mean±s.e.m.), while after the bath application of LY379268 (1 μM) it was −78.48 mV±1.80 (n=10 Wilcoxon signed rank test: p=0.048*). Such changes in threshold were also not observed following ACSF treatment (n=10; baseline: −76.06 mV±1.71; ACSF treated: −76.32 mV±1.82; Wilcoxon signed rank test: p=0.3750).
Since early clinical trials used a prodrug form of another selective group II metabotropic glutamate receptor agonist, specifically […] (a methionine amide of LY-404039, also called pornagiumetad methionil or LY-2140023 monohydrate), the effect of LY-404039 on TRN neuron rebound bursting activity in WT mice was measured. […] The rebound bursting in control conditions was 2.71±0.42 (mean±s.e.m.), while after the bath application of LY404039 (1 μM) it was 4.57±0.64 (n=7 Wilcoxon signed rank test: p=0.0156).
Whether specific allosteric activation of the mGlu3 receptor can also enhance rebound bursting activity in TRN neurons was examined. […]

WT and CaV3.3 RH mice = assay: EEG recording of NREM sleep, delta power and sleep spindles after LY379268, analyzed by Luna; type: in vivo; details: 10 mg/kg i.p.
Method: (§2) There is a strong correlation between rebound bursting in TRN neurons and the rate of occurrence of sleep spindle oscillations during NREM or deep sleep state in mice (Wells et al., Ghoshal et al.) Since LY379268 increased rebound burst firing of TRN neurons in WT mice and rescued rebound bursting deficits in RH mice, it was examined whether activation of mGlu3 could rescue the sleep spindle deficits observed in the RH mice. LY379268 was administered intraperitoneally (i.p.; 10 mg/kg) while simultaneously recording the brain activity using electroencephalography (EEG) in WT and CaV3.3 RH mice. EEG was recorded using surface electrodes chronically implanted near the frontal and parietal lobes of the mice (Pinnacle Systems). Mice were habituated in the EEG recording arena for 48 hrs and then injected with vehicle (0.9% saline) and recorded for another 24 hours. Then, 10 mg/kg LY379268 formulated in 0.9% saline was injected, and their EEG activity was recorded for another 24 hours, and analyzed by Luna (zzz.bwh.harvard.edu, Ghoshal et al., 2020).

WT mice = assay: EEG recording of NREM sleep and sleep spindle density after Mavalon-63, decision tree algorithm; type: in vivo; details: 10 mg/kg
Method: as §2
Whether allosteric activation of mGlu3 receptor using the Mavalon-63 PAM would also lead to an increase in sleep spindle density was examined. The experimental design is shown in FIG. 6A, and mice were similarly recorded as in Example 4. […]

[1] = both WT and RH mice, 12 hr light cycle

N[C@@]1(C(=O)O)CO[C@H]2[C@H](C(=O)O)[C@H]21 (stereo in doubt) [LY379268, (1R,4R,5S, 6R)-4-Amino-2-oxabicyclo[3.1.0]hexane-4,6-dicarboxylic acid]
rebound bursting (number of rebound bursts) after bath application (TRN neurons in RH mice): 3.78±1.08
threshold for rebound bursting after bath application (TRN neurons in WT mice; WT mice, LY379268 1 μM bath application, n=10, baseline −76.98 mV±1.79, p=0.048): −78.48 mV
rebound bursting (number of rebound bursts) after bath application (TRN neurons in WT mice; WT mice, LY379268 1 μM bath application, n=15, baseline 1.87±0.291, p=0.002): 2.87±0.435
NREM specific sleep spindle deficits in RH mice (WT and CaV3.3 RH mice; RH mice, to wildtype levels, WT-baseline vs RH-LY379268 p>0.05): rescued
sleep spindle density, entire NREM period (WT and CaV3.3 RH mice; both WT and RH mice, 12-hr light cycle, especially parietal cortex, Fc=13 Hz and 15 Hz): modest but significant increase
relative delta power (WT and CaV3.3 RH mice; [1]): concurrent increase
time spent in NREM sleep (WT and CaV3.3 RH mice; [1]): increased
increase in sleep spindles, latter half (last 6 hours) of the light cycle (WT and CaV3.3 RH mice; compared with the entire 12-hr light cycle, Fc=13 Hz and 15 Hz): more robust

N[C@@]1(C(=O)O)CS(=O)(=O)[C@H]2[C@H](C(=O)O)[C@H]21 [LY404039, (1R,4S,5S,6S)-4-Amino-2-thiabicyclo [3.1.0]hexane-4,6-dicaiboxylic acid 2,2-dioxide]
rebound bursting (number of rebound bursts) after bath application (TRN neurons in WT mice; WT mice, LY404039 1 μM bath application, n=7, control 2.71±0.42, p=0.0156): 4.57±0.64

CN1C(=O)c2cccn2-c2cc(-c3ccc(F)cn3)ccc2C12CC2 [Mavalon 63, 5-Methyl-9-(5-fluoropyridin-2-yl)-spiro[benzo [f]pyrrolo[1.2-a][1,4]diazepine-6,1′-cyclopropan]-4(5H)-one]
rebound bursting (number of rebound bursts) after bath application (TRN neurons in WT mice; WT TRN neurons, Mavalon 63 500 nM bath application, n=12, baseline 3.2±0.77, p=0.0020): 4.9±0.91
time spent in NREM (WT mice; 12-hr light cycle): did not increase
parietal sleep spindle density during NREM (WT mice; averaged across all center frequencies 9-15 Hz, 12 hour light cycle): appreciable and significant (p<0.05; paired t-test) increase
